Source: article PMC5218480 (PLoS ONE, 2017)

Test system: MV-4-11 cells
Assay: Gene expression microarray analysis (Affymetrix PrimeView) and GSEA
Type: cell-based, human
Set-up: RFU PODN (11730768_x_at) / Fold change /veh PODN (11730768_x_at) / RFU LINC00158 (11744669_a_at) / Fold change /veh LINC00158 (11744669_a_at) / RFU DUSP10 (11751237_a_at) / Fold change /veh DUSP10 (11751237_a_at) / RFU ID3 (11757404_x_at) / Fold change /veh ID3 (11757404_x_at) / RFU PLEKHG5 (11737974_s_at) / Fold change /veh PLEKHG5 (11737974_s_at) / RFU LRRC4B (11730491_at) / Fold change /veh LRRC4B (11730491_at) / RFU GIMAP4 (11747438_a_at) / Fold change /veh GIMAP4 (11747438_a_at) / RFU KRT8 (11758183_x_at) / Fold change /veh KRT8 (11758183_x_at) / RFU CNN1 (11734310_a_at) / Fold change /veh CNN1 (11734310_a_at) / RFU VPS37D (11726825_at) / Fold change /veh VPS37D (11726825_at) / RFU C10orf10 (11716522_x_at) / Fold change /veh C10orf10 (11716522_x_at) / RFU KIR2DL2 /// KIR2DL4 /// KIR2DL5A /// KIR2DL5B /// KIR2DS1 /// KIR2DS2 /// KIR2DS3 /// KIR2DS4 /// KIR3DL3 /// KIR3DL3 /// KIR3DS1 (11738374_at) / Fold change /veh KIR2DL2 /// KIR2DL4 /// KIR2DL5A /// KIR2DL5B /// KIR2DS1 /// KIR2DS2 /// KIR2DS3 /// KIR2DS4 /// KIR3DL3 /// KIR3DL3 /// KIR3DS1 (11738374_at) / RFU C1QL1 (11718748_at) / Fold change /veh C1QL1 (11718748_at) / RFU TMPRSS4 (11747572_a_at) / Fold change /veh TMPRSS4 (11747572_a_at) / RFU HAMP (11756126_x_at) / Fold change /veh HAMP (11756126_x_at) / RFU RNFT2 (11725882_a_at) / Fold change /veh RNFT2 (11725882_a_at) / RFU NR4A2 (11747474_a_at) / Fold change /veh NR4A2 (11747474_a_at) / RFU ABCC12 (11746883_a_at) / Fold change /veh ABCC12 (11746883_a_at) / RFU TMEM136 (11760407_x_at) / Fold change /veh TMEM136 (11760407_x_at) / RFU CLDN22 /// WWC2 (11732394_at) / Fold change /veh CLDN22 /// WWC2 (11732394_at) / RFU HLA-DPB1 (11760878_x_at) / Fold change /veh HLA-DPB1 (11760878_x_at) / RFU SPINT1 (11716480_a_at) / Fold change /veh SPINT1 (11716480_a_at) / RFU GAP43 (11754022_s_at) / Fold change /veh GAP43 (11754022_s_at) / RFU A4GNT (11735810_at) / Fold change /veh A4GNT (11735810_at) / RFU PRB3 (11715151_x_at) / Fold change /veh PRB3 (11715151_x_at) / RFU TUBB4B (11761932_at) / Fold change /veh TUBB4B (11761932_at) / RFU CAPN14 (11732068_a_at) / Fold change /veh CAPN14 (11732068_a_at) / RFU TMCC2 (11721928_a_at) / Fold change /veh TMCC2 (11721928_a_at) / RFU IRGQ (11745062_a_at) / Fold change /veh IRGQ (11745062_a_at) / RFU FAM174B (11720279_a_at) / Fold change /veh FAM174B (11720279_a_at) / RFU TMPRSS4 (11748680_a_at) / Fold change /veh TMPRSS4 (11748680_a_at) / RFU FAM212B (11763350_a_at) / Fold change /veh FAM212B (11763350_a_at) / RFU PLEKHG5 (11743358_a_at) / Fold change /veh PLEKHG5 (11743358_a_at) / RFU ZSCAN30 (11745921_a_at) / Fold change /veh ZSCAN30 (11745921_a_at) / RFU CMKLR1 (11741424_a_at) / Fold change /veh CMKLR1 (11741424_a_at) / RFU LOC101060620 /// MAPK8IP1 (11723275_at) / Fold change /veh LOC101060620 /// MAPK8IP1 (11723275_at) / RFU SPTSSB (11747773_x_at) / Fold change /veh SPTSSB (11747773_x_at) / RFU PRSS12 (11739890_at) / Fold change /veh PRSS12 (11739890_at) / RFU BIN1 (11741810_x_at) / Fold change /veh BIN1 (11741810_x_at) / RFU WNT11 (11732464_a_at) / Fold change /veh WNT11 (11732464_a_at) / RFU C10orf10 (11716521_a_at) / Fold change /veh C10orf10 (11716521_a_at) / RFU C5orf56 (11738089_at) / Fold change /veh C5orf56 (11738089_at) / RFU CYB561 (11721691_x_at) / Fold change /veh CYB561 (11721691_x_at) / RFU ANKRD19P (11752326_a_at) / Fold change /veh ANKRD19P (11752326_a_at) / RFU OR2T12 /// OR2T33 /// OR2T8 (11738714_s_at) / Fold change /veh OR2T12 /// OR2T33 /// OR2T8 (11738714_s_at) / RFU VCAN (11748164_a_at) / Fold change /veh VCAN (11748164_a_at) / RFU JSRP1 (11732532_at) / Fold change /veh JSRP1 (11732532_at) / RFU KRTAP10-11 (11738290_x_at) / Fold change /veh KRTAP10-11 (11738290_x_at) / RFU MYO3A (11730013_a_at) / Fold change /veh MYO3A (11730013_a_at) / RFU EBF3 (11725865_a_at) / Fold change /veh EBF3 (11725865_a_at) / RFU CAMK2N1 (11719241_x_at) / Fold change /veh CAMK2N1 (11719241_x_at) / RFU C5orf56 (11738088_a_at) / Fold change /veh C5orf56 (11738088_a_at) / RFU OLFML3 (11715873_a_at) / Fold change /veh OLFML3 (11715873_a_at) / RFU LOC100653217 /// NTM (11731650_a_at) / Fold change /veh LOC100653217 /// NTM (11731650_a_at) / RFU MAPK11 (11762145_a_at) / Fold change /veh MAPK11 (11762145_a_at) / RFU FIZ1 (11724087_x_at) / Fold change /veh FIZ1 (11724087_x_at) / RFU OASL (11726364_x_at) / Fold change /veh OASL (11726364_x_at) / RFU SOX15 (11748057_x_at) / Fold change /veh SOX15 (11748057_x_at) / RFU CD79A (11719716_a_at) / Fold change /veh CD79A (11719716_a_at) / RFU HIST1H1D (11736915_at) / Fold change /veh HIST1H1D (11736915_at) / RFU CASKIN2 (11723855_a_at) / Fold change /veh CASKIN2 (11723855_a_at) / RFU LOC730098 (11760151_x_at) / Fold change /veh LOC730098 (11760151_x_at) / RFU OR4N2 (11742367_at) / Fold change /veh OR4N2 (11742367_at) / RFU PRRT2 (11749266_a_at) / Fold change /veh PRRT2 (11749266_a_at) / RFU SNX32 (11753110_a_at) / Fold change /veh SNX32 (11753110_a_at) / RFU CDHR5 (11726645_a_at) / Fold change /veh CDHR5 (11726645_a_at) / RFU RCAN1 (11760418_a_at) / Fold change /veh RCAN1 (11760418_a_at) / RFU FAM167A (11723789_a_at) / Fold change /veh FAM167A (11723789_a_at) / RFU FAM26E (11764081_at) / Fold change /veh FAM26E (11764081_at) / RFU ISYNA1 (11749810_s_at) / Fold change /veh ISYNA1 (11749810_s_at) / RFU ACY1 (11761880_at) / Fold change /veh ACY1 (11761880_at) / RFU 11764098_at / Fold change /veh 11764098_at / RFU SAMD14 (11745864_x_at) / Fold change /veh SAMD14 (11745864_x_at) / RFU NPB (11741838_a_at) / Fold change /veh NPB (11741838_a_at) / RFU TMPRSS6 (11731388_a_at) / Fold change /veh TMPRSS6 (11731388_a_at) / RFU KRTAP10-2 (11738614_at) / Fold change /veh KRTAP10-2 (11738614_at) / RFU ARHGAP8 /// PRR5-ARHGAP8 (11727945_x_at) / Fold change /veh ARHGAP8 /// PRR5-ARHGAP8 (11727945_x_at) / RFU KRTAP5-7 /// NADSYN1 (11734609_at) / Fold change /veh KRTAP5-7 /// NADSYN1 (11734609_at) / RFU RASL12 (11751679_a_at) / Fold change /veh RASL12 (11751679_a_at) / RFU CDKN2B (11736163_a_at) / Fold change /veh CDKN2B (11736163_a_at) / RFU PRF1 (11729649_at) / Fold change /veh PRF1 (11729649_at) / RFU, ZNF638 /// ZNF638-IT1 / Fold change vs veh, ZNF638 /// ZNF638-IT1 / RFU, PANK3 / Fold change vs veh, PANK3 / RFU, SH3YL1 / Fold change vs veh, SH3YL1 / RFU, ZEB2 / Fold change vs veh, ZEB2 / RFU, NRIP1 / Fold change vs veh, NRIP1 / RFU, PTTG1IP / Fold change vs veh, PTTG1IP / RFU, CAPN2 / Fold change vs veh, CAPN2 / RFU, MED14 / Fold change vs veh, MED14 / RFU, SNORA58 / Fold change vs veh, SNORA58 / RFU, C1orf63 / Fold change vs veh, C1orf63 / RFU, LRRFIP1 / Fold change vs veh, LRRFIP1 / RFU, NDUFAF7 / Fold change vs veh, NDUFAF7 / RFU, SLC12A2 / Fold change vs veh, SLC12A2 / RFU, IBTK / Fold change vs veh, IBTK / RFU, ESF1 / Fold change vs veh, ESF1 / Fold change vs veh, TMEM50B / RFU, TAOK1 / Fold change vs veh, TAOK1 / RFU, ACBD3 / Fold change vs veh, ACBD3 / RFU, TMA16 / Fold change vs veh, TMA16 / RFU, RWDD3 / Fold change vs veh, RWDD3 / RFU, BCAT1 / Fold change vs veh, BCAT1 / RFU, EDEM3 / Fold change vs veh, EDEM3 / RFU, TMEM33 / Fold change vs veh, TMEM33 / RFU, WDR75 / Fold change vs veh, WDR75 / RFU, AHCTF1 / Fold change vs veh, AHCTF1 / RFU, TFRC / Fold change vs veh, TFRC / RFU, ZDHHC17 / Fold change vs veh, ZDHHC17 / RFU, NOM1 / Fold change vs veh, NOM1 / RFU, ARL8B / Fold change vs veh, ARL8B / RFU, ZBTB11 / Fold change vs veh, ZBTB11 / RFU, TAMM41 / Fold change vs veh, TAMM41 / RFU, KIAA1704 /// LOC100996395 / Fold change vs veh, KIAA1704 /// LOC100996395 / RFU, ING1 / Fold change vs veh, ING1 / RFU, TRMT61B / Fold change vs veh, TRMT61B / RFU, FUBP3 / Fold change vs veh, FUBP3 / RFU, TP53 / Fold change vs veh, TP53 / RFU, TNKS2 / Fold change vs veh, TNKS2 / RFU, ZFP14 / Fold change vs veh, ZFP14 / RFU, ACTR2 / Fold change vs veh, ACTR2 / RFU, PPP3R1 / Fold change vs veh, PPP3R1 / RFU, PIK3R1 / Fold change vs veh, PIK3R1 / RFU, HNRNPA1 / Fold change vs veh, HNRNPA1 / RFU, RNF170 / Fold change vs veh, RNF170 / RFU, ZNF28 / Fold change vs veh, ZNF28 / RFU, RNGTT / Fold change vs veh, RNGTT / RFU, OGT / Fold change vs veh, OGT / RFU, BRD1 / Fold change vs veh, BRD1 / RFU, MARS / Fold change vs veh, MARS / RFU, ZNF655 / Fold change vs veh, ZNF655 / RFU, FAHD1 / Fold change vs veh, FAHD1 / RFU, BDP1 / Fold change vs veh, BDP1 / RFU, LRRCC1 / Fold change vs veh, LRRCC1 / RFU, ARID1A / Fold change vs veh, ARID1A / RFU, ZNF146 / Fold change vs veh, ZNF146 / RFU, ZNF330 / Fold change vs veh, ZNF330 / RFU, GPN3 / Fold change vs veh, GPN3 / RFU, C9orf123 / Fold change vs veh, C9orf123 / RFU, N4BP2L2 / Fold change vs veh, N4BP2L2 / RFU, ARFIP1 / Fold change vs veh, ARFIP1 / RFU, FAM179B / Fold change vs veh, FAM179B / RFU, BCL10 / Fold change vs veh, BCL10 / RFU, UHRF1BP1L / Fold change vs veh, UHRF1BP1L / RFU, BET1 / Fold change vs veh, BET1 / RFU, CNOT2 / Fold change vs veh, CNOT2 / RFU, ZNF268 / Fold change vs veh, ZNF268 / Fold change vs veh, ZNF507 / RFU, DGCR2 / Fold change vs veh, DGCR2 / RFU, WDSUB1 / Fold change vs veh, WDSUB1 / Fold change vs veh, HSP90B1 /// MIR3652 / RFU, ADSS / Fold change vs veh, ADSS / RFU, GK / Fold change vs veh, GK / RFU, ZNF148 / Fold change vs veh, ZNF148 / RFU, TAF9 / Fold change vs veh, TAF9 / RFU, SLC1A5 / Fold change vs veh, SLC1A5 / RFU, SLMO2 / Fold change vs veh, SLMO2 / RFU, ABCC4 / Fold change vs veh, ABCC4 / RFU, LOC101060439 /// RAP1B / Fold change vs veh, LOC101060439 /// RAP1B / RFU, RFX7 / Fold change vs veh, RFX7 / RFU, GTPBP10 / Fold change vs veh, GTPBP10 / RFU, CNEP1R1 / Fold change vs veh, CNEP1R1 / RFU, BIVM-ERCC5 /// ERCC5 / Fold change vs veh, BIVM-ERCC5 /// ERCC5 / RFU, ILF3 / Fold change vs veh, ILF3 / RFU 11762660_at / Fold change /veh 11762660_at / RFU VCAN (11757783_s_at) / Fold change /veh VCAN (11757783_s_at) / RFU DDX43 (11728927_at) / Fold change /veh DDX43 (11728927_at) / RFU KRT8 (11758188_x_at) / Fold change /veh KRT8 (11758188_x_at) / RFU NKD1 (11759106_at) / Fold change /veh NKD1 (11759106_at) / RFU SRD5A1 (11742802_a_at) / Fold change /veh SRD5A1 (11742802_a_at) / RFU TPSAB1 /// TPSB2 (11721975_s_at) / Fold change /veh TPSAB1 /// TPSB2 (11721975_s_at) / RFU GSTM3 (11746129_a_at) / Fold change /veh GSTM3 (11746129_a_at) / RFU IL23R (11737362_x_at) / Fold change /veh IL23R (11737362_x_at) / RFU TMEM51 (11727254_a_at) / Fold change /veh TMEM51 (11727254_a_at) / RFU PIWIL2 (11732686_x_at) / Fold change /veh PIWIL2 (11732686_x_at) / RFU ORM1 (11744905_x_at) / Fold change /veh ORM1 (11744905_x_at) / RFU CCDC152 (11743942_at) / Fold change /veh CCDC152 (11743942_at) / RFU ECM1 (11717891_a_at) / Fold change /veh ECM1 (11717891_a_at) / RFU IL23R (11748794_a_at) / Fold change /veh IL23R (11748794_a_at) / RFU TNFAIP8L3 (11732012_x_at) / Fold change /veh TNFAIP8L3 (11732012_x_at) / RFU MBOAT4 (11741988_at) / Fold change /veh MBOAT4 (11741988_at) / RFU 11764193_at / Fold change /veh 11764193_at / RFU TMEM53 (11763286_at) / Fold change /veh TMEM53 (11763286_at) / RFU MAGEB2 (11727129_at) / Fold change /veh MAGEB2 (11727129_at) / RFU TMEM200A (11744735_a_at) / Fold change /veh TMEM200A (11744735_a_at) / RFU CCDC152 (11751479_a_at) / Fold change /veh CCDC152 (11751479_a_at) / RFU FAM211A (11726209_a_at) / Fold change /veh FAM211A (11726209_a_at) / RFU RGS16 (11746705_a_at) / Fold change /veh RGS16 (11746705_a_at) / RFU VCAN (11755009_s_at) / Fold change /veh VCAN (11755009_s_at) / RFU RHOB (11743442_s_at) / Fold change /veh RHOB (11743442_s_at) / RFU RGS16 (11720943_a_at) / Fold change /veh RGS16 (11720943_a_at) / RFU RGS16 (11720944_at) / Fold change /veh RGS16 (11720944_at) / RFU, VPS4B / Fold change vs veh, VPS4B / RFU, CREB1 / Fold change vs veh, CREB1 / RFU, DNAJC13 / Fold change vs veh, DNAJC13 / RFU, GNAQ / Fold change vs veh, GNAQ / RFU, CDK5R1 / Fold change vs veh, CDK5R1 / RFU, ZRANB3 / Fold change vs veh, ZRANB3 / RFU, CUL4A / Fold change vs veh, CUL4A / RFU, CCNY / Fold change vs veh, CCNY / RFU, UFL1 / Fold change vs veh, UFL1 / RFU, COG3 / Fold change vs veh, COG3 / RFU, DIAPH2 / Fold change vs veh, DIAPH2 / RFU, SKA2 / Fold change vs veh, SKA2 / RFU, AFF3 / Fold change vs veh, AFF3 / RFU, LMF1 / Fold change vs veh, LMF1 / RFU, IPO11 / Fold change vs veh, IPO11 / RFU, DFFB / Fold change vs veh, DFFB / RFU, FOXP1 / Fold change vs veh, FOXP1 / RFU, CARD8 / Fold change vs veh, CARD8 / RFU, STRN3 / Fold change vs veh, STRN3 / RFU, ADK / Fold change vs veh, ADK / RFU, RASSF2 / Fold change vs veh, RASSF2 / RFU, WIPF1 / Fold change vs veh, WIPF1 / RFU, LARP1B / Fold change vs veh, LARP1B / RFU, RASA1 / Fold change vs veh, RASA1 / RFU, RB1 / Fold change vs veh, RB1 / RFU, PPFIA1 / Fold change vs veh, PPFIA1 / RFU, MAT2A / Fold change vs veh, MAT2A / RFU, CCT5 / Fold change vs veh, CCT5 / RFU, WDR92 / Fold change vs veh, WDR92 / RFU, CUX1 / Fold change vs veh, CUX1 / RFU, TTC7A / Fold change vs veh, TTC7A / RFU, TMEM135 / Fold change vs veh, TMEM135 / RFU, DEPTOR / Fold change vs veh, DEPTOR / RFU, CPM / Fold change vs veh, CPM / RFU, DNAJB6 / Fold change vs veh, DNAJB6 / RFU, CACNA2D3 / Fold change vs veh, CACNA2D3 / RFU, DTX4 / Fold change vs veh, DTX4 / RFU, TFCP2 / Fold change vs veh, TFCP2 / RFU, GMCL1 /// GMCL1P1 / Fold change vs veh, GMCL1 /// GMCL1P1 / RFU, AEBP2 / Fold change vs veh, AEBP2 / RFU, SNHG1 /// SNORD22 /// SNORD25 /// SNORD26 /// SNORD27 /// SNORD28 /// SNORD29 /// SNORD31 / Fold change vs veh, SNHG1 /// SNORD22 /// SNORD25 /// SNORD26 /// SNORD27 /// SNORD28 /// SNORD29 /// SNORD31 / Fold change (Aza/veh), C12orf56 (ProbeSet 11735607_a_at) / Fold change (ACY-1035/veh), C12orf56 (ProbeSet 11735607_a_at) / Fold change (Aza/veh), FGFR1OP (ProbeSet 11751329_s_at) / Fold change (ACY-1035/veh), FGFR1OP (ProbeSet 11751329_s_at) / Fold change (Aza/veh), VPS36 (ProbeSet 11739960_a_at) / Fold change (ACY-1035/veh), VPS36 (ProbeSet 11739960_a_at) / RFU SYPL1 (11715823_x_at) / Fold change /veh SYPL1 (11715823_x_at) / RFU IGFBP7 (11715501_s_at) / Fold change /veh IGFBP7 (11715501_s_at) / RFU REEP3 (11722064_at) / Fold change /veh REEP3 (11722064_at) / RFU IGLL1 (11728026_x_at) / Fold change /veh IGLL1 (11728026_x_at): dose or concentration left out as unconfirmed
Conditions: MV-4-11 cells, 48 hours

## Nc1ccc(-c2cccs2)cc1NC(=O)c1ccc2c(c1)cc(C1CC1)n2CCN1CCOCC1 [ACY-1035]
  Fold change /veh PIWIL2 (11732686_x_at): 0.84
